Source: BigSolDB 2.1

CN1CCN(C2=Nc3cc(Cl)ccc3Nc3ccccc32)CC1
solubility (mole fraction)
Conditions | 278.15 K | 283.15 K | 288.15 K | 293.15 K | 298.15 K | 303.15 K | 308.15 K | 313.15 K | 318.15 K | 323.15 K
in 2-ethoxyethanol | 0.0358 | 0.0391 | 0.0415 | 0.0442 | 0.0476 | 0.0499 | 0.053 | 0.0566 | 0.0612 | 0.0666
in 2-methoxyethanol | 0.0326 | 0.0349 | 0.0366 | 0.0393 | 0.0422 | 0.0451 | 0.048 | 0.0508 | 0.0546 | 0.0596
in 2-propoxyethanol | 0.042 | 0.0443 | 0.0463 | 0.0499 | 0.0521 | 0.0548 | 0.0581 | 0.0612 | 0.0637 | 0.0679
in ethanol | 0.00466 | 0.00535 | 0.00581 | 0.0064 | 0.0072 | 0.0081 | 0.00917 | 0.0105 | 0.012 | 0.0134
in ethyl acetate | 0.00895 | 0.01 | 0.0114 | 0.0128 | 0.0146 | 0.016 | 0.0181 | 0.0203 | 0.0233 | 0.0265
in methyl acetate | 0.00616 | 0.00707 | 0.00797 | 0.0094 | 0.0108 | 0.0124 | 0.0142 | 0.0164 | 0.0188 | 0.022
in n-butanol | 0.00644 | 0.00761 | 0.00853 | 0.00972 | 0.0112 | 0.0129 | 0.0145 | 0.0164 | 0.0192 | 0.0217
in n-butyl acetate | 0.0121 | 0.0136 | 0.0147 | 0.0164 | 0.0182 | 0.02 | 0.0228 | 0.0255 | 0.0276 | 0.0314
in n-pentanol | 0.00737 | 0.00904 | 0.0107 | 0.0121 | 0.0135 | 0.0152 | 0.0177 | 0.0203 | 0.0234 | 0.0264
in n-pentyl acetate | 0.0131 | 0.0143 | 0.0162 | 0.0176 | 0.0198 | 0.0221 | 0.024 | 0.0269 | 0.0298 | 0.0334
in n-propanol | 0.00577 | 0.00645 | 0.00734 | 0.0083 | 0.00928 | 0.0109 | 0.0123 | 0.0148 | 0.0168 | 0.019
in n-propyl acetate | 0.0114 | 0.0128 | 0.014 | 0.0157 | 0.0174 | 0.0194 | 0.0219 | 0.0246 | 0.027 | 0.0305
